Test results reported in patent US20240352000A1, “NOVEL PYRIMIDINE-2,4-DIAMINE DERIVATIVES, PREPARATION METHOD THEREFOR, AND PHARMACEUTICAL COMPOSITION CONTAINING SAME AS ACTIVE INGREDIENT FOR PREVENTION OR TREATMENT OF CANCER” (KOREA RESEARCH INSTITUTE OF CHEMICAL TECHNOLOGY, priority 2021, published 2024).

Legend:
[1] = tested on: Ba/F3 EGFR L858R; assay: CellTiter-Glo cell viability, Ba/F3 EGFR L858R; format: cell-based; settings: 72 hours
Procedure: (§1) An experiment to measure the activity of the compounds of the present invention against the mutant Ba/F3 EGFR cell line was performed as follows using the CellTiter-Glo system sold by Promega. The CellTiter-Glo assay is a method to confirm the cell viability by measuring ATP present in cells in cell culture. The Ba/F3 EGFR L858R, Ba/F3 EGFR L858R/T790M, Ba/F3 EGFR L858R/T790M/C797S mutant cell line was used. The Ba/F3 EGFR L858R, Ba/F3 EGFR L858R/T790M, and Ba/F3 EGFR L858R/T790M/C797S mutant cell lines was cultured in RPMI containing 10% FBS and 1% penicillin-streptomycin with 1 μg of puromycin in an incubator at 37° C. and 5% CO2.
(§2) Analysis of the inhibitory ability effect of the compounds against EGFR was conducted according to the following analysis reaction recipe.
(§3) 2500 cells/90 μl were passaged and cultured in a 96-well cell culture plate, and after 24 hours, treated with the compound represented by Formula 1 at a concentration of 0, 0.01, 0.03, 0.1, 0.3, 1, 3, and 10 (μM). After reaction for 72 hours, the plate treated with the compound was left at room temperature for 30 minutes, then further treated with 100 μl of reagent, and shaken at room temperature for 10 minutes. Finally, the ratio of fluorescence values at 570 nm was obtained using the equipment to quantitatively measure and confirmed the inhibitory ability of the compounds. The measurement values measured at eight compound concentrations were analyzed using the Prism program (version 5.01, Graphpad Software, Inc.), and the IC50 value, which is an indicator of the inhibitory ability of the compound, was calculated.

[2] = tested on: Ba/F3 EGFR del19; assay: CellTiter-Glo cell viability, Ba/F3 EGFR del19; format: cell-based; settings: 72 hours
Procedure: (§4) An experiment to measure the activity of the compounds of the present invention against the mutant Ba/F3 EGFR cell line was performed as follows using the CellTiter-Glo system sold by Promega. The CellTiter-Glo assay is a method to confirm the cell viability by measuring ATP present in cells in cell culture. For the Ba/F3 EGFR del19, Ba/F3 EGFR del19/T790M, Ba/F3 del19/T790M/C797S mutant cell line, a cell line provided by Crown Bioscience was purchased and used. The Ba/F3 EGFR del19, Ba/F3 EGFR del19/T790M, Ba/F3 del19/T790M/C797S mutant cell line was cultured in RPMI containing 10% FBS and 1% penicillin-streptomycin with 1 μg of puromycin in an incubator at 37° C. and 5% CO2.
as §2
as §3, with “cells/90 μL” for “cells/90 μl”

[3] = target: HER2 A775_G776insYVMA (Homo sapiens (Human), UniProt P04626, INS775YVMA); assay: HTRF enzyme assay, HER2 mutant enzyme; format: biochemical; settings: recombinant enzyme, 37° C. 2 hours
Procedure: An experiment to measure the activity of the compounds of the present invention against HER mutant enzymes was performed as follows using the HTRF system sold by Cisbio. For the HER2 mutant enzyme, HER2 A775_G776insYVMA mutant enzyme, a recombinant protein provided by Carna Biosciences was purchased and used.
(§5) The composition of the assay buffer used for measuring the activity was 50 mM Tris-HCl pH 7.5, 100 mM NaCl, 7.5 mM MgCl2, 3 mM KCl, 0.01% Tween 20, 0.1% BSA, and 1 mM DTT. Here, an enzyme reaction was performed using with ATP at a concentration of […] and a peptide substrate labeled biotin at a concentration of […]. Analysis of the inhibitory effect of the compounds against the HER2 A775_G776insYVMA mutant activity was conducted according to the following analysis reaction recipe. • Component 1: 4 μL of a HER2 A775_G776insYVMA mutant enzyme • Component 2: 2 μL of a compound solution • Component 3: 4 μL of ATP and a peptide labeled with biotin
(§6) The enzyme reaction was started by first mixing Component 1 and Component 2 and then adding Component 3. After reaction at 37° C. for 2 hours, […] of measurement solution consisting of streptavidin-XL665 and europium-labeled anti-phosphotyrosine antibody provided by Cisbio was added to the enzyme reaction solution and reacted at room temperature for 1 hour. Finally, the ratio of fluorescence values at 615 nm and 665 nm was obtained using the Envision equipment from Perkin-Elmer to quantitatively measure the enzyme activity and confirmed the inhibitory ability of the compounds. The measurement values measured at seven compound concentrations were analyzed using the Prism program (version 5.01, Graphpad Software, Inc.), and the IC50 value, which is an indicator of the inhibitory ability of the compound, was calculated.

[4] = tested on: Ba/F3 EGFR del19/T790M; assay: CellTiter-Glo cell viability, Ba/F3 EGFR del19/T790M; format: cell-based; settings: 72 hours
Procedure: as §4, §2
as §3, with “cells/90 μL” for “cells/90 μl”

[5] = tested on: Ba/F3 EGFR del19/T790M/C797S; assay: CellTiter-Glo cell viability, Ba/F3 EGFR del19/T790M/C797S; format: cell-based; settings: 72 hours
Procedure: as §4, §2
as §3, with “cells/90 μL” for “cells/90 μl”

[6] = tested on: Ba/F3 EGFR L858R/T790M/C797S; assay: CellTiter-Glo cell viability, Ba/F3 EGFR L858R/T790M/C797S; format: cell-based; settings: 72 hours
Procedure: as §1, §2, §3

[7] = tested on: Ba/F3 EGFR L858R/T790M; assay: CellTiter-Glo cell viability, Ba/F3 EGFR L858R/T790M; format: cell-based; settings: 72 hours
Procedure: as §1, §2, §3

[8] = target: EGFR A763_Y764insFHEA (Homo sapiens (Human), UniProt P00533, INS763FHEA); assay: HTRF enzyme assay, EGFR Ex20 insertion mutant enzyme; format: biochemical; settings: recombinant enzyme, 37° C. 2 hours
Procedure: An experiment to measure the activity of the compounds of the present invention against EGFR mutant enzymes was performed as follows using the HTRF system sold by Cisbio. For the EGFR mutant enzyme, EGFR A763_Y764insFHEA enzyme, a recombinant protein provided by SignalChem was purchased and used.
as §5, with “performed using ATP at” for “performed using with ATP at”, “substrate labeled with biotin at” for “substrate labeled biotin at”, “against the EGFR activity was” for “against the HER2 A775_G776insYVMA mutant activity was”, “μL of an EGFR mutant enzyme” for “μL of a HER2 A775_G776insYVMA mutant enzyme”
as §6

[9] = tested on: Ba/F3 EGFR V769_D770insASV; assay: CellTiter-Glo cell growth, Ba/F3 EGFR Ex20 insertion mutant; format: cell-based; settings: 72 hours
Procedure: as §4, with “the” for “the mutant”, “EGFR V769_D770insASV mutant” for “EGFR”, “EGFR V769_D770insASV” for “EGFR del19, Ba/F3 EGFR del19/T790M, Ba/F3 del19/T790M/C797S”, “1 μg/ml” for “1 μg”
Analysis of the inhibitory ability effect of the compounds against the EGFR mutant cell growth was conducted according to the following analysis reaction recipe.
as §3, with “1000 cells/100 μL were passaged” for “2500 cells/90 μl were passaged”, “[…]. After reaction” for “and 10 (μM). After reaction”, “with 100 μL of reagent,” for “with 100 μl of reagent,”, “confirmed the cell growth inhibitory ability” for “confirmed the inhibitory ability”, “of the cell growth inhibitory ability” for “of the inhibitory ability”

Chain of HER2 A775_G776insYVMA (P04626 other isoform, or with tags, fused parts or gaps del 1-675/ins YVMA behind 775 limits assumed): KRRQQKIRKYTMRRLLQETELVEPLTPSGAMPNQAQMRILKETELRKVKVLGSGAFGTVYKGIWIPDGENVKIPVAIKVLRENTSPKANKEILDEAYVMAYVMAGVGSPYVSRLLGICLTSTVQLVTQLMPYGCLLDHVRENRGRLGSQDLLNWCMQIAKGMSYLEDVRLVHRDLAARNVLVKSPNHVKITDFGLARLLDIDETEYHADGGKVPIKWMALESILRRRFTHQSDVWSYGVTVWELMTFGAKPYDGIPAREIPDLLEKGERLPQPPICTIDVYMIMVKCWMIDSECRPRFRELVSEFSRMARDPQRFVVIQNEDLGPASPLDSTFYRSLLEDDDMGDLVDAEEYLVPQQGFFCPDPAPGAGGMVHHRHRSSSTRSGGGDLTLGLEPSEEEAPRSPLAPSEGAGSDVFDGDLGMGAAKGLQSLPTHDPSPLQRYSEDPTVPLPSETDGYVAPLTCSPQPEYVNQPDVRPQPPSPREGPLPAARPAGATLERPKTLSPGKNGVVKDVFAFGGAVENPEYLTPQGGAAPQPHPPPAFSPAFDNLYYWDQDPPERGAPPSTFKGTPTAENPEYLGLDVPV
Chain of EGFR A763_Y764insFHEA (P00533 other isoform, or with tags, fused parts or gaps del 1-694/ins FHEA behind 763 limits assumed): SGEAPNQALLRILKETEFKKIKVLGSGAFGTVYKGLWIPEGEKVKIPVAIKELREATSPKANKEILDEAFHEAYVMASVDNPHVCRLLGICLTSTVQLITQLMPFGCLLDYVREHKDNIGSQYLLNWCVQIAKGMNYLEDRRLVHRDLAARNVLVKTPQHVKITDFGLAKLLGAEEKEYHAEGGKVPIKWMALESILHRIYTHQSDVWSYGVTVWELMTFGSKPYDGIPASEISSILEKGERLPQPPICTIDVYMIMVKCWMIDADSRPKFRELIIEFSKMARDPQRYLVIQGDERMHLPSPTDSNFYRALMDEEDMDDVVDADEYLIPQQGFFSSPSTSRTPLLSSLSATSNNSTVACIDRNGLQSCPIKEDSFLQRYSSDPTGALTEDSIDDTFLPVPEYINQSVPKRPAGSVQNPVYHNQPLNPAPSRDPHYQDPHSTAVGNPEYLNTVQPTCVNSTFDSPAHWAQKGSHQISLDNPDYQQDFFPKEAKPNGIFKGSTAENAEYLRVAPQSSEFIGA

| Structure (SMILES) | IC50 [1] [nM] | IC50 [2] [nM] | IC50 [3] [nM] | IC50 [4] [nM] | IC50 [5] [nM] | IC50 [6] [nM] | IC50 [7] [nM] | IC50 [8] [nM] | IC50 [9] [nM] |
| --- | --- | --- | --- | --- | --- | --- | --- | --- | --- |
| COc1cc(N2CCC(N3CCN(C)CC3)CC2)ccc1Nc1ncc(Cl)c(Nc2cccc3c2N(C(C)=O)CC3)n1 [Example 12, 1-(7-((5-chloro-2-((2-methoxy-4-(4-(4-methylpiperazin-1-yl)piperidin-1-yl)phenyl)amino)pyrimidin-4-yl)amino)indolin-1-yl)ethan-1-one] | > 100 | < 100 | 25 | > 100 | > 100 | > 100 | > 100 | 178 | > 100 |
| CCS(=O)(=O)N1CCc2cccc(Nc3nc(Nc4ccc(N5CCC(N6CCN(C)CC6)CC5)cc4OC)ncc3Cl)c21 [Example 13, 5-chloro-N4-(1-(ethylsulfonyl)indolin-7-yl)-N2-(2-methoxy-4-(4-(4-methylpiperazin-1-yl)piperidin-1-yl)phenyl)pyrimidine-2,4-diamine] | > 100 | < 100 | 26 | > 100 | > 100 | > 100 | > 100 | 91 | > 100 |
| CCC(=O)N1CCc2cccc(Nc3nc(Nc4ccc(N5CCC(N6CCN(C)CC6)CC5)cc4OC)ncc3Cl)c21 [Example 14, 1-(7-((5-chloro-2-((2-methoxy-4-(4-(4-methylpiperazin-1-yl)piperidin-1-yl)phenyl)amino)pyrimidin-4-yl)amino)indolin-1-yl)propan-1-one] | > 100 | < 100 | > 100 | > 100 | > 100 | > 100 | > 100 | > 100 | > 100 |
| COc1cc(N2CCC(N3CCN(C)CC3)CC2)ccc1Nc1ncc(Cl)c(Nc2cccc3c2N(C(C)=O)CCC3)n1 [Example 15, 1-(8-((5-chloro-2-((2-methoxy-4-(4-(4-methylpiperazin-1-yl)piperidin-1-yl)phenyl)amino)pyrimidin-4-yl)amino)-3,4-dihydroquinolin-1(2H)-yl)ethan-1-one] | > 100 | > 100 | 589 | > 100 | > 100 | > 100 | > 100 | > 100 | > 100 |
| CCC(=O)N1CCCc2cccc(Nc3nc(Nc4ccc(N5CCC(N6CCN(C)CC6)CC5)cc4OC)ncc3Cl)c21 [Example 16, 1-(8-((5-chloro-2-((2-methoxy-4-(4-(4-methylpiperazin-1-yl)piperidin-1-yl)phenyl)amino)pyrimidin-4-yl)amino)-3,4-dihydroquinolin-1(2H)-yl)propan-1-one] | > 100 | > 100 | > 100 | > 100 | > 100 | > 100 | > 100 | > 100 | > 100 |
| COc1cc(N2CCC(N3CCNCC3)CC2)ccc1Nc1ncc(Cl)c(Nc2cccc3c2N(S(C)(=O)=O)CC3)n1 [Example 17, 5-chloro-N2-(2-methoxy-4-(4-(piperazin-1-yl)piperidin-1-yl)phenyl)-N4-(1-(methylsulfonyl)indolin-7-yl)pyrimidine-2,4-diamine] | < 100 | < 100 | 4 | < 100 | > 100 | > 100 | > 100 | 20 | > 100 |
